Laboratory results as given in ChEMBL document CHEMBL4813981, “Synthesis and in vitro antibacterial activity of new aminothiazole-oximepiperidone cephalosporins” (2021).
Converted amounts (≈) assume the structure as drawn.

Key:
Enterococcus faecalis = test: Antibacterial activity against Enterococcus faecalis ATCC 51299 assessed as reduction in bacterial growth; format: functional
Escherichia coli [1] = test: Antibacterial activity against Escherichia coli ATCC 25922 assessed as reduction in bacterial growth in the presence of Avibactam; format: functional
Klebsiella pneumoniae [2] = test: Antibacterial activity against Multidrug resistant Klebsiella pneumoniae KR 15-1 assessed as reduction in bacterial growth in the presence of Avibactam; format: functional
Klebsiella pneumoniae [3] = test: Antibacterial activity against Multidrug resistant Klebsiella pneumoniae KR 15-3 assessed as reduction in bacterial growth in the presence of Avibactam; format: functional
Klebsiella pneumoniae [4] = test: Antibacterial activity against ESBLs negative Carbapenem-sensitive Klebsiella pneumoniae 17-19 assessed as reduction in bacterial growth; format: functional
Escherichia coli [5] = test: Antibacterial activity against ESBLs negative Carbapenem-sensitive Escherichia coli 17-4 assessed as reduction in bacterial growth; format: functional
Klebsiella aerogenes [6] = test: Antibacterial activity against Enterobacter aerogenes 15-4 assessed as reduction in bacterial growth; format: functional
Pseudomonas aeruginosa [7] = test: Antibacterial activity against Carbapenem- sensitive Pseudomonas aeruginosa 17-11 assessed as reduction in bacterial growth; format: functional
Acinetobacter baumannii [8] = test: Antibacterial activity against Carbapenem- resistant Acinetobacter baumannii 17-3 assessed as reduction in bacterial growth in the presence of Avibactam; format: functional
Acinetobacter baumannii [9] = test: Antibacterial activity against Carbapenem- resistant Acinetobacter baumannii 17-6 assessed as reduction in bacterial growth in the presence of Avibactam; format: functional
Acinetobacter baumannii [10] = test: Antibacterial activity against Carbapenem- resistant Acinetobacter baumannii 17-8 assessed as reduction in bacterial growth in the presence of Avibactam; format: functional
Acinetobacter baumannii [11] = test: Antibacterial activity against Carbapenem- resistant Acinetobacter baumannii 17-12 assessed as reduction in bacterial growth in the presence of Avibactam; format: functional
Klebsiella pneumoniae [12] = test: Antibacterial activity against Carbapenem- resistant Klebsiella pneumoniae KR 15-5 assessed as reduction in bacterial growth in the presence of Avibactam; format: functional
Klebsiella pneumoniae [13] = test: Antibacterial activity against Carbapenem- resistant Klebsiella pneumoniae KR 15-11 assessed as reduction in bacterial growth in the presence of Avibactam; format: functional
Klebsiella pneumoniae [14] = test: Antibacterial activity against ESBLs negative Carbapenem-sensitive Klebsiella pneumoniae 17-17 assessed as reduction in bacterial growth in the presence of Avibactam; format: functional
Escherichia coli [15] = test: Antibacterial activity against ESBLs positive Carbapenem-sensitive Escherichia coli 17-15 assessed as reduction in bacterial growth in the presence of Avibactam; format: functional
Escherichia coli [16] = test: Antibacterial activity against ESBLs positive Carbapenem- sensitive Escherichia coli 17-17 assessed as reduction in bacterial growth in the presence of Avibactam; format: functional
Enterobacter cloacae [17] = test: Antibacterial activity against Enterobacter cloacae 17-2 assessed as reduction in bacterial growth in the presence of Avibactam; format: functional
Enterobacter cloacae [18] = test: Antibacterial activity against Enterobacter cloacae 17-5 assessed as reduction in bacterial growth in the presence of Avibactam; format: functional
Klebsiella aerogenes [19] = test: Antibacterial activity against Enterobacter aerogenes 15-5 assessed as reduction in bacterial growth in the presence of Avibactam; format: functional
Pseudomonas aeruginosa [20] = test: Antibacterial activity against Carbapenem- sensitive Pseudomonas aeruginosa 17-9 assessed as reduction in bacterial growth in the presence of Avibactam; format: functional
Pseudomonas aeruginosa [21] = test: Antibacterial activity against Carbapenem- sensitive Pseudomonas aeruginosa 17-29 assessed as reduction in bacterial growth in the presence of Avibactam; format: functional
Escherichia coli [22] = test: Bactericidal activity against ESBLs positive Carbapenem-sensitive Escherichia coli 17-3 assessed as reduction in bacterial growth; format: functional
Klebsiella aerogenes [23] = test: Bactericidal activity against Enterobacter aerogenes 17-1 assessed as reduction in bacterial growth; format: functional
Klebsiella aerogenes [24] = test: Bactericidal activity against Enterobacter aerogenes 15-4 assessed as reduction in bacterial growth; format: functional
Pseudomonas aeruginosa [25] = test: Bactericidal activity against carbapenem-sensitive Pseudomonas aeruginosa 17-9 assessed as reduction in bacterial growth; format: functional
Pseudomonas aeruginosa [26] = test: Bactericidal activity against carbapenem-sensitive Pseudomonas aeruginosa 17-26 assessed as reduction in bacterial growth; format: functional
Pseudomonas aeruginosa [27] = test: Bactericidal activity against carbapenem-sensitive Pseudomonas aeruginosa 17-29 assessed as reduction in bacterial growth; format: functional
Escherichia coli [28] = test: Bactericidal activity against Escherichia coli ATCC 25922 assessed as reduction in bacterial growth; format: functional
Acinetobacter baumannii [29] = test: Bactericidal activity against Carbapenem- resistant Acinetobacter baumannii 17-2 assessed as reduction in bacterial growth in the presence of avibactam; format: functional
Klebsiella pneumoniae [30] = test: Bactericidal activity against Carbapenem- resistant Klebsiella pneumoniae KR 15-4 assessed as reduction in bacterial growth in the presence of avibactam; format: functional
Pseudomonas aeruginosa [31] = test: Bactericidal activity against Carbapenem- resistant Pseudomonas aeruginosa 17-1 assessed as reduction in bacterial growth in the presence of avibactam; format: functional
Klebsiella pneumoniae [32] = test: Bactericidal activity against ESBLs positive Carbapenem-sensitive Klebsiella pneumoniae 17-6 assessed as reduction in bacterial growth in the presence of avibactam; format: functional
Klebsiella pneumoniae [33] = test: Bactericidal activity against ESBLs negative Carbapenem-sensitive Klebsiella pneumoniae 17-16 assessed as reduction in bacterial growth in the presence of avibactam; format: functional
Escherichia coli [34] = test: Bactericidal activity against ESBLs negative carbapenem-sensitive Escherichia coli 17-7 assessed as reduction in bacterial growth in the presence of avibactam; format: functional
Escherichia coli [35] = test: Bactericidal activity against ESBLs positive carbapenem-sensitive Escherichia coli 17-10 assessed as reduction in bacterial growth in the presence of avibactam; format: functional
Escherichia coli [36] = test: Bactericidal activity against ESBLs positive carbapenem-sensitive Escherichia coli 17-18 assessed as reduction in bacterial growth in the presence of avibactam; format: functional
Klebsiella aerogenes [37] = test: Bactericidal activity against Enterobacter aerogenes 17-1 assessed as reduction in bacterial growth in the presence of avibactam; format: functional
Klebsiella aerogenes [38] = test: Bactericidal activity against Enterobacter aerogenes 17-4 assessed as reduction in bacterial growth in the presence of avibactam; format: functional
Klebsiella aerogenes [39] = test: Bactericidal activity against Enterobacter aerogenes 15-3 assessed as reduction in bacterial growth in the presence of avibactam; format: functional
Pseudomonas aeruginosa [40] = test: Bactericidal activity against carbapenem-sensitive Pseudomonas aeruginosa 17-26 assessed as reduction in bacterial growth in the presence of avibactam; format: functional
Acinetobacter baumannii [41] = test: Bactericidal activity against Acinetobacter baumannii NCTC 13304 assessed as reduction in bacterial growth in the presence of avibactam; format: functional
Pseudomonas aeruginosa [42] = test: Bactericidal activity against Pseudomonas aeruginosa ATCC 27853 assessed as reduction in bacterial growth in the presence of avibactam; format: functional
Pseudomonas aeruginosa [43] = test: Antibacterial activity against Carbapenem- resistant Pseudomonas aeruginosa 17-5 assessed as reduction in bacterial growth
Acinetobacter baumannii [44] = test: Antibacterial activity against Carbapenem- resistant Acinetobacter baumannii 17-2 assessed as reduction in bacterial growth
Klebsiella pneumoniae [45] = test: Antibacterial activity against Carbapenem- resistant Klebsiella pneumoniae KR 15-4 assessed as reduction in bacterial growth
Klebsiella pneumoniae [46] = test: Antibacterial activity against ESBLs positive Carbapenem-sensitive Klebsiella pneumoniae 17-6 assessed as reduction in bacterial growth
Klebsiella pneumoniae [47] = test: Antibacterial activity against ESBLs positive Carbapenem-sensitive Klebsiella pneumoniae 17-12 assessed as reduction in bacterial growth

Structure (SMILES): Nc1nc(/C(=N/OCc2cc(=O)c(O)cn2O)C(=O)N[C@@H]2C(=O)N3C(C(=O)O)=CCS[C@H]23)cs1
- MIC (Enterococcus faecalis): > 64 µg/mL
- MIC (Escherichia coli [1]): 0.25 µg/mL
- MIC (Klebsiella pneumoniae [2]): 1 µg/mL
- MIC (Klebsiella pneumoniae [3]): 1 µg/mL
- MIC (Klebsiella pneumoniae [4]): ≤ 0.03 µg/mL
- MIC (Escherichia coli [5]): 0.25 µg/mL (≈ 0.492 µM)
- MIC (Klebsiella aerogenes [6]): 4 µg/mL (≈ 7.87 µM)
- MIC (Pseudomonas aeruginosa [7]): 8 µg/mL (≈ 15.7 µM)
- MIC (Acinetobacter baumannii [8]): 16 µg/mL
- MIC (Acinetobacter baumannii [9]): 16 µg/mL
- MIC (Acinetobacter baumannii [10]): 16 µg/mL
- MIC (Acinetobacter baumannii [11]): 16 µg/mL
- MIC (Klebsiella pneumoniae [12]): 2 µg/mL
- MIC (Klebsiella pneumoniae [13]): 1 µg/mL
- MIC (Klebsiella pneumoniae [14]): 0.125 µg/mL
- MIC (Escherichia coli [15]): 0.25 µg/mL
- MIC (Escherichia coli [16]): 0.5 µg/mL
- MIC (Enterobacter cloacae [17]): 1 µg/mL
- MIC (Enterobacter cloacae [18]): 4 µg/mL
- MIC (Klebsiella aerogenes [19]): 1 µg/mL
- MIC (Pseudomonas aeruginosa [20]): 2 µg/mL
- MIC (Pseudomonas aeruginosa [21]): 1 µg/mL
- MBC (Escherichia coli [22]): 2 µg/mL (≈ 3.93 µM)
- MBC (Klebsiella aerogenes [23]): 64 µg/mL (≈ 126 µM)
- MBC (Klebsiella aerogenes [24]): 4 µg/mL (≈ 7.87 µM)
- MBC (Pseudomonas aeruginosa [25]): 16 µg/mL (≈ 31.5 µM)
- MBC (Pseudomonas aeruginosa [26]): > 16 µg/mL
- MBC (Pseudomonas aeruginosa [27]): 8 µg/mL (≈ 15.7 µM)
- MBC (Escherichia coli [28]): > 8 µg/mL
- MBC (Acinetobacter baumannii [29]): 16 µg/mL
- MBC (Klebsiella pneumoniae [30]): 8 µg/mL
- MBC (Pseudomonas aeruginosa [31]): 64 µg/mL
- MBC (Klebsiella pneumoniae [32]): 0.5 µg/mL
- MBC (Klebsiella pneumoniae [33]): 0.06 µg/mL
- MBC (Escherichia coli [34]): 1 µg/mL
- MBC (Escherichia coli [35]): 0.5 µg/mL
- MBC (Escherichia coli [36]): 1 µg/mL
- MBC (Klebsiella aerogenes [37]): 4 µg/mL
- MBC (Klebsiella aerogenes [38]): 1 µg/mL
- MBC (Klebsiella aerogenes [39]): 16 µg/mL
- MBC (Pseudomonas aeruginosa [40]): 4 µg/mL
- MBC (Acinetobacter baumannii [41]): 16 µg/mL
- MBC (Pseudomonas aeruginosa [42]): 4 µg/mL
- MIC (Pseudomonas aeruginosa [43]): 64 µg/mL (≈ 126 µM)
- MIC (Acinetobacter baumannii [44]): > 64 µg/mL
- MIC (Klebsiella pneumoniae [45]): > 64 µg/mL
- MIC (Klebsiella pneumoniae [46]): 0.5 µg/mL (≈ 0.983 µM)
- MIC (Klebsiella pneumoniae [47]): 2 µg/mL (≈ 3.93 µM)

Structure (SMILES): CC(C)(O/N=C(\C(=O)N[C@@H]1C(=O)N2C(C(=O)[O-])=C(C[n+]3ccccc3)CS[C@H]12)c1csc(N)n1)C(=O)O [CEFTAZIDIME]
- MIC (Enterococcus faecalis): > 64 µg/mL
- MIC (Escherichia coli [1]): 0.125 µg/mL
- MIC (Klebsiella pneumoniae [2]): 2 µg/mL
- MIC (Klebsiella pneumoniae [3]): 2 µg/mL
- MIC (Acinetobacter baumannii [8]): 8 µg/mL
- MIC (Acinetobacter baumannii [9]): 8 µg/mL
- MIC (Acinetobacter baumannii [10]): 8 µg/mL
- MIC (Acinetobacter baumannii [11]): 8 µg/mL
- MIC (Klebsiella pneumoniae [12]): 2 µg/mL
- MIC (Klebsiella pneumoniae [13]): 2 µg/mL
- MIC (Klebsiella pneumoniae [14]): 0.125 µg/mL
- MIC (Escherichia coli [15]): 0.5 µg/mL
- MIC (Escherichia coli [16]): 0.5 µg/mL
- MIC (Enterobacter cloacae [17]): 1 µg/mL
- MIC (Enterobacter cloacae [18]): 1 µg/mL
- MIC (Klebsiella aerogenes [19]): 0.5 µg/mL
- MIC (Pseudomonas aeruginosa [20]): 0.125 µg/mL
- MIC (Pseudomonas aeruginosa [21]): 0.5 µg/mL
- MBC (Escherichia coli [22]): 2 µg/mL (≈ 3.66 µM)
- MBC (Klebsiella aerogenes [23]): 16 µg/mL (≈ 29.3 µM)
- MBC (Klebsiella aerogenes [24]): 0.5 µg/mL (≈ 0.915 µM)
- MBC (Pseudomonas aeruginosa [25]): 0.5 µg/mL (≈ 0.915 µM)
- MBC (Pseudomonas aeruginosa [26]): 8 µg/mL (≈ 14.6 µM)
- MBC (Pseudomonas aeruginosa [27]): 4 µg/mL (≈ 7.32 µM)
- MBC (Escherichia coli [28]): 0.5 µg/mL (≈ 0.915 µM)
- MBC (Acinetobacter baumannii [29]): 8 µg/mL
- MBC (Klebsiella pneumoniae [30]): 2 µg/mL
- MBC (Pseudomonas aeruginosa [31]): 16 µg/mL
- MBC (Klebsiella pneumoniae [32]): > 8 µg/mL
- MBC (Klebsiella pneumoniae [33]): 0.25 µg/mL
- MBC (Escherichia coli [34]): 0.125 µg/mL
- MBC (Escherichia coli [35]): 1 µg/mL
- MBC (Escherichia coli [36]): 0.5 µg/mL
- MBC (Klebsiella aerogenes [37]): 1 µg/mL
- MBC (Klebsiella aerogenes [38]): 0.5 µg/mL
- MBC (Klebsiella aerogenes [39]): 4 µg/mL
- MBC (Pseudomonas aeruginosa [40]): 2 µg/mL
- MBC (Acinetobacter baumannii [41]): 8 µg/mL
- MBC (Pseudomonas aeruginosa [42]): 4 µg/mL
- MIC (Pseudomonas aeruginosa [43]): 64 µg/mL (≈ 117 µM)
- MIC (Acinetobacter baumannii [44]): > 64 µg/mL
- MIC (Klebsiella pneumoniae [45]): > 64 µg/mL
- MIC (Klebsiella pneumoniae [46]): 16 µg/mL (≈ 29.3 µM)
- MIC (Klebsiella pneumoniae [47]): 4 µg/mL (≈ 7.32 µM)

Structure (SMILES): C[C@@H](O)[C@H]1C(=O)N2C(C(=O)O)=C(S[C@@H]3CN[C@H](C(=O)N(C)C)C3)[C@H](C)[C@H]12 [MEROPENEM]
- MIC (Klebsiella pneumoniae [4]): < 0.03 µg/mL
- MIC (Escherichia coli [5]): < 0.03 µg/mL
- MIC (Klebsiella aerogenes [6]): < 0.03 µg/mL
- MIC (Pseudomonas aeruginosa [7]): 2 µg/mL (≈ 5.22 µM)
